Results on one molecule are retold here after patent publication US20240294910A1, “NOVEL THERAPEUTIC AGENT FOR SEPTICEMIA, AND A METHOD FOR SCREENING FOR SAME” (Chugai Seiyaku Kabushiki Kaisha, priority 2014, published 2024).

Holding throughout (type): cell-based, mouse
The test system of one experiment is Arid5A mRNA. In words: Arid5A mRNA expression by qPCR in LPS-stimulated peritoneal macrophages. The settings on record: peritoneal macrophages from C57BL/6 mice, LPS (1 g/mL), test agent 20 μM, 2 hours after LPS stimulation, vs absence of CPZ; FIG. 6. On the procedure: (§1) Peritoneal macrophages from C57BL/6 mice (aged 6 to 8 weeks) were stimulated with LPS ([…]) in the presence or absence of a test agent (20 μM). The relative expression levels of mRNAs of Arid5A, IL-6, and TNF-α were determined in the stimulated peritoneal macrophages by quantitative PCR (qPCR). The expression level of Arid5A mRNA was determined 2 hours after LPS stimulation. The expression levels of IL-6 mRNA and TNF-α mRNA were determined 2 hours, 6 hours, 12 hours, and 24 hours after LPS stimulation. FIGS. 6 to 8 show the results when chlorpromazine (CPZ) was used as a test agent.

A further experiment relates to IL-6 mRNA. In words: IL-6 mRNA expression by qPCR in LPS-stimulated peritoneal macrophages. The following applies: LPS (1 g/mL), test agent 20 μM, vs absence of CPZ, FIG. 7. On the procedure: as §1
Background: Real-time PCR tracks product formation cycle by cycle.

The subject of a further experiment is TNF-α mRNA. In words: TNF-α mRNA expression by qPCR in LPS-stimulated peritoneal macrophages. The following applies: LPS (1 g/mL), test agent 20 μM, determined 2, 6, 12 and 24 hours after LPS stimulation, FIG. 8. On the procedure: as §1

`CN(C)CCCN1c2ccccc2Sc2ccc(Cl)cc21` [CPZ, chlorpromazine]: the “expression of Arid5A mRNA (qPCR)” value in the experiment on Arid5A mRNA is “markedly suppressed”. Also, the “expression of IL-6 mRNA (qPCR)” value in the experiment on IL-6 mRNA (2 hours after LPS stimulation) and in the experiment on IL-6 mRNA (6 hours after LPS stimulation) was “markedly suppressed” in each case. For the same molecule, the “expression of TNF-α mRNA (qPCR)” value in the experiment with TNF-α mRNA is reported as “no effect”.
